Experiments:
CYP2D6 = CYP2D6 (Homo sapiens, UniProt P10635)
Wistar rats = assay: Five Choice Serial Reaction Time Task, standard version (STD), repeated administration; assay type: in vivo, Wistar rat; set-up: Latency (Correct) / Latency (Incorrect): unit not given here; conditions: for Latency (Correct) / Latency (Incorrect) / Magazine Head Entries / Omissions / Reward Latency / Trials Completed: STD
From the text: The behavioral tasks utilized were three versions of the rat Five Choice Serial Reaction Time Task (5C-SRTT), the standard version of the task (STD) with a fixed stimulus duration and a fixed intertrial interval, the variable stimulus duration (vSD) and the variable intertrial interval (vITI) version. The principal readout parameters in each task were the % Hit and the % correct choices (measures of sustained attention) and three measures of inhibitory response control (premature, perseverative, and timeout responses), although a number of additional outcome measures were obtained (see under Methods and Results below).
Twenty-four adult (approx. 10 months old) male Wistar rats (Envigo, Inc, Indianapolis, IN) were used in the study. […] Subjects were double housed in polycarbonate cages (45×30×18 cm) with corncob bedding in a vivarium of constant temperature (21-23° C.) and humidity (40-50%). […] All behavioral testing was performed during the light portion (9 a.m.-5 p.m.) of the light/dark cycle (Monday thru Friday). Animals were cared for in accordance with the Guide for the Care and Use of Laboratory Animals (U.S. National Institutes of Health) and the experimental protocols were approved by the Institutional Animal Care and Use Committee at Augusta University (Protocol #2010-0044).
The 5C-SRTT procedure (reviewed, Robbins, 2002. Psychopharmacology (Berl); 163(3-4):362-80) was conducted as we have described previously (Terry et al., 2014, Neurotoxicology and Teratology 44:18-29, 2014; Callahan et al., 2020, Neuropharmacology. August 15; 173:107994). […] Animals were trained in eight automated 5C-SRTT operant chambers (Med Associates, St. Albans, VT, USA), controlled by MedPC software (Med Associates). Briefly, each operant chamber was equipped with 5 apertures containing a photocell beam to detect nose pokes and a lamp (2.8 W) that could be illuminated randomly at varying durations. Food pellets (45 mg chow pellet, BioServ, Frenchtown, NJ, USA) were delivered automatically to a magazine, located on the opposite wall to the nose pokes, that was also equipped with a light that turned on to indicate that a pellet had been dispensed. The house-light remained on for the entire session unless an error or omission occurred. Training sessions began with the delivery of a food reward and retrieval triggered the first trial. […] Sessions ended when 40 minutes had lapsed or 100 trials had been completed.
For this study, subjects were re-trained 5 days per week until they re-established a stable performance criteria with a fixed (1.0 sec) stimulus duration and a fixed ITI (5 sec) of 70-75% accuracy, <20% omissions and completion of all 100 trials for 5 consecutive days. Upon meeting these performance criteria animals were trained for one additional week and two groups of subjects (N=12) were assembled and balanced according to their performance accuracy, specifically the % Hit evaluation, which takes into account correct responses as well as all incorrect responses including the number of omissions. […] The vSD version of the task increases the attentional load while the vITI increases impulsivity-like behavior. The following outcome measures and behavioral domains were assessed: % Hit and % correct=sustained attention; omissions=attention/motivation; premature responses=impulsivity; perseverative responses=compulsivity; timeout responses=cognitive inflexibility; magazine head entries=appetitive motivation and compulsivity-like behavior; response latencies=information processing speed and/or motivation. For the STD version of the task, the stimulus duration (SD) was fixed at 1.0 sec and the ITI was fixed at 5 sec. In the vSD version of the task the following stimulus durations were presented in a pseudorandom manner: 0.3, 0.6, and 0.9 sec. In the vITI version, 2.5, 5.0, and 10.0 sec ITIs were employed in a pseudorandom manner. […]

[1] = Group 1, 0.1 mg/kg, Drug Exp period, mean ± SEM
[2] = Group 1, 0.1 mg/kg, Post-Drug Exp (vehicle washout) period, mean ± SEM
[3] = Group 2, 0.3 mg/kg, Drug Exp period, mean ± SEM
[4] = Group 2, 0.3 mg/kg, Post-Drug Exp (vehicle washout) period, mean ± SEM

CYP2D6, sequence (P10635 whole entry): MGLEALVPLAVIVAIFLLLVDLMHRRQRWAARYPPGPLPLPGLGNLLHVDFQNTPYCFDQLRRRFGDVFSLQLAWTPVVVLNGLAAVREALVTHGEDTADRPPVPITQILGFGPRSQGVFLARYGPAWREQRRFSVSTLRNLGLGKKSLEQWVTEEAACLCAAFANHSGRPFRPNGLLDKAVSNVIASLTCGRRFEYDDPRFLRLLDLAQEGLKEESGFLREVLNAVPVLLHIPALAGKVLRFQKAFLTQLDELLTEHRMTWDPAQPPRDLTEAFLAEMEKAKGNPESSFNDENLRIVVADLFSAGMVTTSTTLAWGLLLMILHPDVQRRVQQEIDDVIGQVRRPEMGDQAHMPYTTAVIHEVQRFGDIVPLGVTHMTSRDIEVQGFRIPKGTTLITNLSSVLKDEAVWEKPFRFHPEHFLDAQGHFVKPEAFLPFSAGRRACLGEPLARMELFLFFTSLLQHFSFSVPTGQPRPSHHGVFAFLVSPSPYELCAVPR

Clc1ccc(C2(OCC3OCCO3)c3ccccc3C3=NCCN32)cc1 (centres unmarked) [Compound I-19]
Inhibition at Highest Test Article Concentration (CYP2D6; 2D6, Dextromethorphan, at 50 μM): 84.3 at 50 μM % | IC50 (CYP2D6; microsomes): 8.7 µM | Latency (Correct) (Wistar rats; [1]): 0.94 | Latency (Incorrect) (Wistar rats; [1]): 2.15 | Magazine Head Entries (Wistar rats; [1]): 150.65 ± 9.46 | Omissions (Wistar rats; [1]): 9.43 | Reward Latency (Wistar rats; [1]): 3.53 | Trials Completed (Wistar rats; [1]): 96.99 ± 2.12 | Latency (Correct) (Wistar rats; [2]): 0.87 ± 0.03 | Latency (Incorrect) (Wistar rats; [2]): 1.86 ± 0.09 | Magazine Head Entries (Wistar rats; [2]): 168.06 ± 13.60 | Omissions (Wistar rats; [2]): 4.46 ± 0.81 | Reward Latency (Wistar rats; [2]): 2.64 | Trials Completed (Wistar rats; [2]): 97.65 ± 2.23 | Latency (Correct) (Wistar rats; [3]): 0.92 | Latency (Incorrect) (Wistar rats; [3]): 2.28 | Magazine Head Entries (Wistar rats; [3]): 183.89 ± 32.19 | Omissions (Wistar rats; [3]): 8.10 ± 2.32^+ | Reward Latency (Wistar rats; [3]): 4.08 | Trials Completed (Wistar rats; [3]): 98.44 ± 0.95 | Latency (Correct) (Wistar rats; [4]): 0.78 | Latency (Incorrect) (Wistar rats; [4]): 1.61 ± 0.07 | Magazine Head Entries (Wistar rats; [4]): 211.72 ± 32.77 | Omissions (Wistar rats; [4]): 3.26 ± 0.95 | Reward Latency (Wistar rats; [4]): 2.27 | Trials Completed (Wistar rats; [4]): 100.00 | % Hit and % correct (Wistar rats; repeated 0.1 and 0.3 mg/kg IP): did not significantly affect either the % Hit or the % correct | premature responses (Wistar rats; repeated 0.1 and 0.3 mg/kg IP): reduced the number of premature responses compared to pre- and post-drug conditions | Omissions (Wistar rats; repeated 0.1 and 0.3 mg/kg IP, vSD and vITI versions): modest increases in the number of omissions
